# Test results from patent publication US8106031B2, “Hydrolytically-resistant boron-containing therapeutics and methods of use” (Anacor Pharmaceuticals, Inc., priority 2006, dated 2012).
# Like-named read-outs stand apart in the source and are kept apart here.
# What was measured:
# Trichophyton rubrum = test: MIC against T. rubrum (NCCLS broth dilution); format: cell-based; conditions: Trichophyton rubrum; Table 1; over 90% reduction of growth, 24-168 h at 35° C.; read-out: Minimum inhibitory concentration, T. rubrum
# Source text: (§1) To determine the antifungal activity of these compounds we screened for their minimum inhibitory concentrations (MIC) against the major dermatophytes that cause onychomycosis, T. rubrum and T. mentagrophytes, and against the yeasts and molds C. albicans, C. neoformans and A. fumigatus to test for their broad spectrum activity. The antifungal agent ciclopirox, currently in use for the topical treatment of onychomycosis, was used as a reference.
# (§2) All MIC testing against Trichophyton rubrum, Trichophyton mentagrophytes, Candida albicans, Cryptococcus neoformans and Aspergillus fumigatus were determined following the National Committee for Clinical Laboratory Standards (NCCLS) guidelines for antimicrobial testing of yeasts and filamentous fungi.^i,ii
# (§3) Two-fold serial dilutions of the test compounds were prepared in 96-well plates. […] Pfaller M A, Chaturvedi V, Espinel-Ingroff A, Ghannoum M A, Gosey L L, Odds F C, Rex J H, Rinaldi M G, Sheehan D J, Walsh T J, Warnock D W. NCCLS publication M27-A2—Reference Method for Broth Dilution Antifungal Susceptibility Testing of Yeasts; Approved Standard—Second Edition. […] Pfaller M A, Chaturvedi V, Espinel-Ingroff A, Ghannoum M A, Gosey L L, Odds F C, Rex J H, Rinaldi M G, Sheehan D J, Walsh T J, Warnock D W. NCCLS publication M38-A—Reference Method for Broth Dilution Antifungal Susceptibility Testing of Filamentous Fungi; Approved Standard.
# Aspergillus fumigatus = test: MIC against A. fumigatus (NCCLS broth dilution); format: cell-based; conditions: Aspergillus fumigatus; Table 1; over 90% reduction of growth, 24-168 h at 35° C.; read-out: Minimum inhibitory concentration, A. fumigatus
# Source text: as §1, §2, §3
# [1] = Penetration of the nail plate; format: in vitro ADME; conditions: result in words
# [2] = test system: Trichophyton mentagrophytes; test: MIC against T. mentagrophytes (NCCLS broth dilution); format: cell-based; conditions: Trichophyton mentagrophytes; Table 1; over 90% reduction of growth, 24-168 h at 35° C.; read-out: Minimum inhibitory concentration, T. mentagrophytes
# Source text: as §1, §2, §3
# Cryptococcus neoformans = test: MIC against C. neoformans (NCCLS broth dilution); format: cell-based; conditions: Cryptococcus neoformans; Table 1; over 90% reduction of growth, 24-168 h at 35° C.; read-out: Minimum inhibitory concentration, C. neoformans
# Source text: as §1, §2, §3
# Candida albicans = test: MIC against C. albicans (NCCLS broth dilution); format: cell-based; conditions: Candida albicans; Table 1; over 90% reduction of growth, 24-168 h at 35° C.; read-out: Minimum inhibitory concentration, C. albicans
# Source text: as §1, §2, §3
# LogP = format: physicochemical
# Source text: (§4) Further discussion, and assays for testing log P, molecular weight and water solubility are described in U.S. patent application Ser. Nos. 11/357,687 and 11/505,591, which are incorporated herein by reference.
# Water solubility = format: physicochemical
# Source text: as §4
# Plasma protein binding = format: in vitro ADME
MIC (Trichophyton rubrum) [µg/mL],MIC (Aspergillus fumigatus) [µg/mL],penetration of the nail plate [1],MIC [2] [µg/mL],MIC (Cryptococcus neoformans) [µg/mL],MIC (Candida albicans) [µg/mL],"logP (LogP; table of b228, read-out: eLogP)",SMILES,solubility (Water solubility) [µg/mL],logP (LogP; read-out: LogP),fraction unbound (Plasma protein binding)
0.5,1,penetrates the nail plate poorly,0.5,0.5,0.5,–,"Cc1cc(C2CCCCC2)n(O)c(=O)c1 [Ciclopirox, reference compound]",–,–,–
–,–,penetrates the nail plate poorly,–,–,–,3.55,Fc1ccc2c(c1)COB2c1ccccc1 [Compound 3],–,–,–
–,–,–,–,–,–,–,OB1OCc2cc(F)ccc21 [drawing 88],> 100,1.9,0.34
–,–,–,–,–,–,–,OB1OCc2cc(Cl)ccc21 [drawing 89],> 100,2.3,0.17
